Experimental data from the supplement of paper PMC4862054.

What was measured:
CAL-120 [1] = conditions: 72 h
Outline: (§1)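 To measure viability, fluorescence at 560/590 nm was read after 2.5 µl CellTiter-Blue had been added for 2 h at 37 °C. Cells from breast cancer lines had been seeded in 20 µl suspension onto 384-well plates pre-loaded with compound dissolved in 5 µl medium and kept for 72 h. EC50 comes from a fitted percent-inhibition dose-response curve censored at the highest concentration, after per-plate normalisation to vehicle and a positive kill control, Z'-factor checks, and removal of rows with zero drug sensitivity score.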

HCC1143 [2] = conditions: 72 h
Outline: as §1

BT-549 [3] = conditions: 72 h
Outline: (§2)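 Breast cancer cell lines in 20 µl suspension were added to 384-well plates already holding compound at 5 concentrations, spaced in 10-fold steps across a compound-specific 10,000-fold range, and incubated for 72 h. CellTox Green fluorescence (485/520 nm) was read first to measure cell death, followed by CellTiter-Glo luminescence for viability after 10 min at room temperature. Each plate was normalised to 0.1 % DMSO and a positive kill control. EC50 values came from dose-response curve fits and were censored at the top concentration.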

DU-4475 [4] = conditions: 72 h
Outline: as §2

MDA-MB-436 [5] = conditions: 72 h
Outline: as §2

Hs578T [6] = conditions: 72 h
Outline: as §2

MDA-MB-468 [7] = conditions: 72 h
Outline: as §2

MCF-10A = conditions: 72 h
Outline: as §2

CAL-51 [8] = conditions: 72 h
Outline: as §2

CAL-120 [9] = conditions: 72 h; remark: listed apart in the source
Outline: as §2

MFM-223 [10] = conditions: 72 h
Outline: as §2

MDA-MB-231 [11] = conditions: 72 h
Outline: as §2

BT-474 [12] = conditions: 72 h
Outline: as §2

HCC1143 [13] = conditions: 72 h; remark: listed apart in the source
Outline: as §2

BT-549 [14] = experiment: normalised viability (% of control), CellTiter-Blue; higher = more viable cells (100 = DMSO, 0 = benzethonium chloride kill control); conditions: 1 nM; incubation time: 72 h
Description: (§3)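 DSRT, CellTiter-Blue viability, 72 h incubation. Signal is normalised to DMSO and benzethonium chloride controls. Value is the normalised response at dose 1.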

DU-4475 [15] = experiment: as above; conditions: 1 nM; incubation time: 72 h
Description: as §3

MDA-MB-436 [16] = experiment: as above; conditions: 1 nM; incubation time: 72 h
Description: as §3

Hs578T [17] = experiment: as above; conditions: 1 nM; incubation time: 72 h
Description: as §3

MDA-MB-468 [18] = experiment: as above; conditions: 1 nM; incubation time: 72 h
Description: as §3

MDA-MB-453 = experiment: as above; conditions: 1 nM; incubation time: 72 h
Description: as §3

CAL-85-1 = experiment: as above; conditions: 1 nM; incubation time: 72 h
Description: as §3

CAL-51 [19] = experiment: as above; conditions: 1 nM; incubation time: 72 h
Description: as §3

CAL-120 [20] = experiment: as above; conditions: 1 nM; incubation time: 72 h
Description: as §3

HCC1599 = experiment: as above; conditions: 1 nM; incubation time: 72 h
Description: as §3

SK-BR-3 [21] = experiment: as above; conditions: 1 nM; incubation time: 72 h
Description: as §3

HCC1937 = experiment: as above; conditions: 1 nM; incubation time: 72 h
Description: as §3

HDQ-P1 = experiment: as above; conditions: 1 nM; incubation time: 72 h
Description: as §3

CAL-148 = experiment: as above; conditions: 1 nM; incubation time: 72 h
Description: as §3

MFM-223 [22] = experiment: as above; conditions: 1 nM; incubation time: 72 h
Description: as §3

MDA-MB-231 [23] = experiment: as above; conditions: 1 nM; incubation time: 72 h
Description: as §3

BT-474 [24] = experiment: as above; conditions: 1 nM; incubation time: 72 h
Description: as §3

HCC1143 [25] = experiment: as above; conditions: 1 nM; incubation time: 72 h
Description: as §3

SK-BR-3 [26] = conditions: 72 h
Outline: as §2

SMILES	EC50, CellTiter-Blue viability (CAL-120 [1])	EC50, CellTiter-Blue viability (HCC1143 [2])	EC50, CellTiter-Glo (BT-549 [3])	EC50, CellTiter-Glo (DU-4475 [4])	EC50, CellTiter-Glo (MDA-MB-436 [5])	EC50, CellTiter-Glo (Hs578T [6])	EC50, CellTiter-Glo (MDA-MB-468 [7])	EC50, CellTiter-Glo (MCF-10A)	EC50, CellTiter-Glo (CAL-51 [8])	EC50, CellTiter-Glo (CAL-120 [9])	EC50, CellTiter-Glo (MFM-223 [10])	EC50, CellTiter-Glo (MDA-MB-231 [11])	EC50, CellTiter-Glo (BT-474 [12])	EC50, CellTiter-Glo (HCC1143 [13])	normalised viability (BT-549 [14])	normalised viability (DU-4475 [15])	normalised viability (MDA-MB-436 [16])	normalised viability (Hs578T [17])	normalised viability (MDA-MB-468 [18])	normalised viability (MDA-MB-453)	normalised viability (CAL-85-1)	normalised viability (CAL-51 [19])	normalised viability (CAL-120 [20])	normalised viability (HCC1599)	normalised viability (SK-BR-3 [21])	normalised viability (HCC1937)	normalised viability (HDQ-P1)	normalised viability (CAL-148)	normalised viability (MFM-223 [22])	normalised viability (MDA-MB-231 [23])	normalised viability (BT-474 [24])	normalised viability (HCC1143 [25])	EC50, CellTiter-Glo (SK-BR-3 [26])
CO[C@@H](C(=O)N1Cc2[nH]nc(NC(=O)c3ccc(N4CCN(C)CC4)cc3)c2C1)c1ccccc1 [Danusertib]	335 nM	2290 nM	882 nM	1530 nM	1090 nM	4060 nM	25.2 nM	628 nM	780 nM	2860 nM	86.5 nM	2480 nM	912 nM	8380 nM	109%	107%	96.5%	96.6%	98.7%	84.3%	77.2%	116%	81%	94.1%	79.4%	91.3%	110%	101%	53.6%	101%	101%	99.3%	
Cc1c(CN2CCN(C(=O)[C@H](C)O)CC2)sc2c(N3CCOCC3)nc(-c3cnc(N)nc3)nc12 [GDC-0980]	181 nM	306 nM	412 nM	2480 nM	501 nM	445 nM	894 nM	486 nM	423 nM	618 nM	362 nM	580 nM	375 nM	591 nM	91.7%	104%	84.5%	102%	99.6%	96.5%	83.5%	101%	96.3%	95.5%	92.2%	88.1%	95.9%	106%	96.8%	96.6%	103%	94.9%	130 nM
